Results on eight molecules are retold here after US20070148283A1, “Compositions providing a sensation substantially similar to that provided by menthol” (Cadbury Adams USA LLC, priority 2005, published 2007).

Where only a bound is given, the exact number is not on record here.

The nature of the first test: Amount in a composition achieving the characteristic cooling effect of menthol. The following applies: amount present in a composition; equivalent amounts relative to menthol. Format: in vivo. The text has this:
For purposes of achieving the characteristic “cooling effect” of menthol, an equivalent amount of another compound sufficient to impart the characteristic “cooling effect” of menthol is about 50 ppm, preferably about 100 ppm or even 200 or 300 ppm of menthyl lactate, about 20 ppm, preferably about 40 ppm or even 50 or 75 ppm of monomenthyl succinate, and about 0.01 ppm, preferably about 0. 1 ppm or even 0.3 or 0.5 ppm of isopulegol. Using these relative conversions, one of ordinary skill in the art may readily substitute one or more compounds to achieve the relative “cooling effect” of menthol.
For the molecule `C=C(C)[C@@H]1CC[C@@H](C)C[C@H]1O` [isopulegol], the “amount sufficient to impart the characteristic cooling effect of menthol” value is recorded as “about 0.01 ppm”.

Take `CC1CCC(C(C)C)C(OC(=O)C(C)O)C1` (stereo not drawn) [menthyl lactate]: the “amount sufficient to impart the characteristic cooling effect of menthol” value is reported as “about 50 ppm”.

Regarding `CC(C)[C@@H]1CC[C@@H](C)C[C@H]1OC(=O)CCC(=O)O` [monomenthyl succinate], the “amount sufficient to impart the characteristic cooling effect of menthol” value was “about 20 ppm”.

In the case of `CC1CCC(C(C)C)C(O)C1` (stereo not drawn) [menthol], the “amount sufficient to impart the characteristic cooling effect of menthol” value is listed as not below 25 ppm.

The next test is described as follows: Amount in a composition achieving the characteristic nasal action of menthol. Format: in vivo. The following applies: amount present in a composition; equivalent amounts relative to menthol. The text has this: For purposes of achieving the characteristic “nasal action” of menthol, an equivalent amount of another compound sufficient to impart the characteristic “nasal action” of menthol is about 0.5 ppm, preferably about 1 ppm or even 2 or 3 ppm of methone, about 0.5 ppm, preferably about 1 ppm or even 2 or 3 ppm of isomethone, about 0.1 ppm, preferably about 0.2 ppm or even 0.3 or 0.5 ppm of eucalyptol, and about 10 ppm, preferably about 20 ppm or even 30 or 50 ppm of camphor. Using these relative conversions, one of ordinary skill in the art may readily substitute one or more compounds to achieve the relative “nasal action” of menthol.
As to `CC(C)[C@@H]1CC[C@H](C)CC1=O` [isomethone, isomenthone], the “amount sufficient to impart the characteristic nasal action of menthol” value is on record as “about 0.5 ppm”.

Turning to `CC(C)[C@@H]1CC[C@@H](C)CC1=O` [methone, menthone], the “amount sufficient to impart the characteristic nasal action of menthol” value was “about 0.5 ppm”.

As for `CC12CCC(CC1=O)C2(C)C` (stereo not drawn) [camphor], the “amount sufficient to impart the characteristic nasal action of menthol” value is reported as “about 10 ppm”.

With `CC1CCC(C(C)C)C(O)C1` (stereo not drawn) [menthol], the “amount sufficient to impart the characteristic nasal action of menthol” value is on record as not below 3 ppm.

For the molecule `CC12CCC(CC1)C(C)(C)O2` [eucalyptol], the “amount sufficient to impart the characteristic nasal action of menthol” value was “about 0.1 ppm”.
